Results on 91 compounds are retold here after PubChem BioAssay AID1508591.

Molecules are shown by their SMILES. A value given as a limit tells only on which side of the number the result lay.

The conditions of this data set: rat; liver microsomes; pH 7.4; 15.0 min; 1.0 µM. For orientation: Microsomes from liver hold many membrane-bound enzymes, among them those of drug oxidation.

Broadly, the half-life is how long it takes for the measured level to halve. Read a high half-life as slow decline.

In the case of `NCC(=O)Nc1ccc(Cl)cc1C(=O)c1ccc[nH]1`, the half-life is > 30 min. Compound `CC(C)N(CCC(=O)c1ccc2ccccc2c1)Cc1ccccc1` had a half-life of 1.65 min. Under `N#Cc1nc(-c2cccc3ccccc23)oc1NCc1ccccc1` stands 8.6 min. The figure for `COc1ccc(-n2nc(C3CCN(C(=O)C4CC4)CC3)[nH]c2=O)cc1` is > 30 min. For the compound `O=C1CCC(C(=O)N2CCSCC2)CN1Cc1ccc(Cl)cc1` (stereo unspecified), the half-life came out at 10 min.

Consider `CCN1C(=O)c2ccccc2[S@](=O)c2ccc(C(=O)NCc3ccc(C#N)cc3)cc21`, for which the half-life amounted to 21 min. The figure for `Oc1ccc(CNc2ccc(F)cc2F)c2cccnc12` is 3.19 min; for `COc1c2c(c3c(c1CCC(=O)O)OC(C)(C)C=C3)OC(C)(C)C=C2` it is > 30 min. Under `COc1cccc(-n2nc(C(=O)O)cc2-c2ccc(C3CCCCC3)c(Cl)c2)c1` stands > 30 min; under `O=C(NCCc1cnc[nH]1)c1ccc(-c2ncc3cnc(-c4cccc(F)c4)cn23)cc1`, > 30 min. The figure for `Cc1ccc(-n2ncc3c(NCCCn4ccnc4)ncnc32)cc1Cl` is 22.7 min. `NC(=O)C1CCN(c2ncc(-c3ccc(Br)cc3)s2)CC1` had a half-life of 3.6 min. Turning to `CN1CCN(C(c2ccccc2)c2ccccc2)CC1`, the half-life amounted to 2.56 min. `Cc1cccc2nc(-c3cccnc3)c(Nc3ccc(C(C)C)cc3)n12`: the half-life stood at 1 min. The figure for `CN(Cc1ccccc1)C(=O)c1ccc(S(=O)(=O)Nc2ccccc2)cc1` is 1.64 min; for `COc1cc2nccc(Oc3ccc(NC(=O)C4(C(=O)Nc5ccc(F)cc5)CC4)cc3)c2cc1OC` it is > 30 min; for `CC1(C)CC2CC(C)(CN2S(=O)(=O)c2ccc(C(=O)Nc3ccc(Cl)cc3)cc2)C1` (stereo unspecified) it is 2.3 min.

Turning to `C#C[C@]1(OC(C)=O)CC[C@H]2[C@@H]3CCC4=C/C(=N/O)CC[C@@H]4[C@H]3CC[C@@]21CC`, the half-life is 3.98 min. With `Cc1cccc(-c2[nH]c(C(C)(C)C)nc2-c2ccc3nccnc3c2)n1`, the half-life was > 30 min. Compound `Fc1cc(Nc2nc(-c3ccncc3)nc3ccccc23)ccc1-c1ccncc1` came in with a half-life of 13 min. The figure for `O=C(Cc1ccc(Cl)c(Cl)c1)Nc1ccc(S(=O)(=O)Nc2cccc(O)c2)cc1` is 10 min; for `CC(C)c1c(-c2ccccc2)nc2c(C#N)c[nH]n2c1=O` it is > 30 min; for `CC(C)(C)OC(=O)N[C@@H](Cc1ccc(O[S+](=O)([O-])c2cccc3cnccc23)cc1)C(=O)Nc1ccc(-c2ccccc2)cc1` it is 2.55 min. Under `COc1cccc(C(=O)Nc2cccc(OCc3cc(=O)n4cccc(C)c4n3)c2)c1` stands 3.17 min; under `Cc1cc(-c2nnc3n2CCCCC3)c(C)n1-c1cccc(C#N)c1`, 8.1 min. The figure for `CC(C)c1ccc(OCc2nc3c(n2Cc2ccccc2)C(=O)N(CC2CCOCC2)CCN3)cc1` is 1.68 min; for `CCC(CC)c1cc([C@H]2CN3CC[C@H]2C[C@@H]3CNS(=O)(=O)c2cccs2)nc(-c2ccncc2)n1` it is > 30 min; for `CCOC(=O)C1=C(CN(CC)Cc2ccccc2)NC(=O)NC1c1ccc(OC(C)C)cc1` (stereo unspecified) it is 1.2 min. `COc1cccc(CNc2ccc(S(=O)(=O)Nc3nc4ccccc4[nH]3)cc2)c1O`: the half-life is > 30 min. The figure for `O=S(=O)(Nc1nccs1)c1ccc(NCc2cc(F)ccc2O)cc1` is 12 min; for `CC(C)c1nc2oc3c(NCCN(C)C)ncnc3c2c2c1COC(C)(C)C2` it is > 30 min. Compound `Cc1ccccc1C(=O)N1CCc2cc(-c3nc(NC(=O)Cc4ccc5c(c4)OCCO5)sc3C)ccc21` returned a half-life of 22 min.

For the compound `N=c1c2ccccc2nnn1-c1ccc(C(F)(F)F)cc1`, the half-life is > 30 min. The figure for `CCOc1cc2c(cc1OCC)CN(C(=O)c1cc3sccc3n1Cc1ccccc1)CC2` is 2.8 min; for `Nc1nc2c(s1)C(c1ccccc1OCc1ccccc1Cl)CC(=O)N2` (stereo unspecified) it is 6.28 min.

`COc1ccc2[nH]c(C[C@@H]3C[C@@H](C(C)C)[C@H](CNCc4ccccc4O)C=C3C)nc2n1` showed a half-life of 1.85 min. Under `Cc1cc(C)nc(NC(=S)N2CCN(c3ccncc3)CC2)c1` stands > 30 min; under `COc1cc(Cl)c(C)cc1Nc1c2c(nc3ccccc13)CCC2`, 1.75 min. The figure for `Cc1ccc(N(C)S(=O)(=O)c2ccc(-c3cnc(C4CC4)o3)cc2)cc1` is 3.6 min; for `CN([C@@H](Cc1ccc(O[S+](=O)([O-])c2cccc3cnccc23)cc1)C(=O)N1CCN(C(=O)OCc2ccccc2)CC1)[S+](=O)([O-])c1cccc2cnccc12` it is 2.7 min. Turning to `CC1CCC(n2c3cnccc3c3cnc(Nc4ccc5c(n4)CCN(C(=O)CO)C5)nc32)CC1` (stereo unspecified), the half-life was determined as 23.5 min. The figure for `Cc1cc(C)nc(NC(=S)N2CCN(c3ccc4nsnc4c3)CC2)c1` is 15.2 min; for `Cc1ccc(-c2ccc(CNc3nc(-c4ccccc4C(C)C)ncc3F)cc2)cn1` it is 4.5 min; for `O=S(=O)(Nc1ccc(-c2cccnc2)c2cccnc12)c1cccc(C(F)(F)F)c1` it is 1.25 min. Under `COc1cc(C(=O)NC2CCCc3c2[nH]c2c(Cl)cccc32)cc(OC)c1OC` (stereo unspecified) stands 8.45 min. The figure for `COc1ccc(NC(=O)c2cc(-c3ccc[nH]3)n[nH]2)cc1OC` is > 30 min; for `Cc1c(CN(C)c2cc(C3CC(O)C3)nc(N)n2)[nH]c2ccccc12` (stereo unspecified) it is 15 min; for `CC1=C[C@@H](CNC(C)C)[C@H](C(C)C)C[C@H]1Cc1nnc(-c2ccncc2)o1` it is 4.76 min.

For the compound `O=[S+]([O-])(Nc1ccc(N2CCNCC2)cc1)c1ccc(NCc2ccc(Br)cc2O)cc1`, the half-life is > 30 min. Turning to `Cc1ccc(S(=O)(=O)Nc2cnccc2C(=O)Nc2nc(-c3cccnc3)cs2)cc1`, the half-life stood at 7.7 min. With `Cc1cc(SCc2sc(-c3ccc(C(F)(F)F)cc3)nc2C)ccc1OCC(=O)O`, the half-life is > 30 min. The figure for `c1ccc2c(Nc3ccn[nH]3)nc(-c3ccncc3)nc2c1` is 13 min; for `CN(C)CCNC(=O)c1nc2nc(-c3ccccc3)c(-c3cccc(Cl)c3)cc2n1C` it is > 30 min; for `Cc1cnc(NC(=O)c2ccc(-c3cccc([N+](=O)[O-])c3)o2)s1` it is 10 min. Under `CC1(C)CNc2cc(NC(=O)c3cccnc3NCc3ccncc3)ccc21` stands 15.2 min; under `Cc1ccnc(N=C(N)N2CCN(c3cccc(C(F)(F)F)c3)CC2)c1`, 2.26 min; under `Cc1ccc(S(=O)(=O)Nc2cnccc2C(=O)Nc2ccc(-n3cncn3)cc2)cc1`, 21 min. Regarding `CCCCC1CCC(C(=O)Nc2ccc(S(=O)(=O)Nc3nccs3)cc2)CC1` (stereo unspecified), the half-life is > 30 min.

Compound `Cc1ccc(-c2cc(C(=O)Nc3ccccn3)c3ccccc3n2)cc1` came in with a half-life of 23.8 min. As to `NC(=O)C1CCN(c2nc(-c3ccc4c(c3)CCO4)cs2)CC1`, the half-life was found to be 5.55 min.

Compound `COC(C)(C)CCn1nc(Nc2c(C)cccc2C)c2cnc(Nc3ccc(OCCN4CCCC4)c(F)c3)nc21` showed a half-life of 3.28 min. Turning to `CCCn1cnc2cc(NCc3ccc(OC)cc3OC)ccc21`, the half-life was found to be 7.1 min.

For the compound `Cc1nn2c(c1-c1ccccc1-c1ccccc1)N(Cc1ccc(O)cc1)CCC2`, the half-life is 1.97 min. `CCOc1ccc(CCNC(=O)c2ccc(C3(C(F)(F)F)N=N3)cc2)cc1OCC`: the half-life is 11 min. Take `O=C(Nc1ccccc1C(=O)Nc1cccc(C(F)(F)F)c1)c1ccccc1`: the half-life is > 30 min. The figure for `c1ccc(-c2cc(Nc3nc(-c4ccncc4)nc4ccccc34)n[nH]2)cc1` is 11 min; for `COc1cc(C(=O)N2CCN(c3cc(Cl)ccc3Cl)CC2)cc(OC)c1OC` it is 4.31 min. The figure for `O=C(NC1CCCc2c1cnn2-c1ccc(O)cc1)c1ccccn1` (stereo unspecified) is > 30 min; for `Cc1ccc(S(=O)(=O)Nc2cnccc2C(=O)Nc2nc(-c3ccc(Cl)c(Cl)c3)cs2)cc1` it is > 30 min; for `OC(CCN1CCCCC1)c1ccc(-c2ccccc2)cc1` (stereo unspecified) it is 4.73 min. The figure for `OCc1cccc(-c2cc(-c3cccnc3)c3cncn3c2)c1` is 22 min; for `CCN(c1cc(C#CCN2CCOCC2)cc(C(=O)NCc2c(C)cc(C)[nH]c2=O)c1C)C1CCC(N(C)CCOC)CC1` (stereo unspecified) it is > 30 min. Take `Nc1nccc2c1ncn2[C@@H]1C=C(CO)[C@@H](O)[C@H]1O`: the half-life is > 30 min. As for `c1cc(-c2cc(-c3ccncc3)c3cncn3c2)c2[nH]ncc2c1`, the half-life stood at 10.1 min. In turn, `O=C(COc1ccccc1)NCC(c1cccs1)S(=O)(=O)c1ccc(Cl)cc1` (stereo unspecified) yielded a half-life of 1.44 min. As for `CN(C)C(=O)c1ccc(-c2cc[nH]c(=O)c2N)cc1`, the half-life was > 30 min. Under `O=c1[nH]cnc2c1ccn2C1OC(CO)C(O)C1O` (stereo unspecified) stands > 30 min; under `Cc1ccc(C)c(NC2=C(c3ccc(C(F)(F)F)cc3)C(=O)c3ccccc32)c1`, 9.11 min; under `Oc1c(C(Nc2nccs2)c2ccc(C(F)(F)F)cc2)ccc2cccnc12` (stereo unspecified), 3.54 min.

For `CCOC(=O)c1nc(Nc2ccc(N3CCC(C)CC3)cc2)c2ccccc2n1`, the half-life amounted to 1.62 min.

On to `COc1ccc(-c2ccc3nc(-c4ccccc4C)oc3c2)c(OC)c1OC`, for which the half-life is > 30 min.

`CC(Nc1nc(N2CCN(S(C)(=O)=O)CC2)nc2ccccc12)c1ccccc1` (stereo unspecified) yielded a half-life of 8.03 min.

As for `Fc1ccc(-c2csc3ncnc(Sc4nnnn4-c4ccccc4)c23)cc1`, the half-life came to 1.6 min. Take `COC(=O)c1ccnc(-c2cc(C(=O)Nc3ccc(C4(N)CC4)cc3)ccn2)c1`: the half-life is > 30 min.

As to `CCOc1cc(-c2nccc3cc(OC)c(OC)cc23)cc(OCC)c1OCC`, the half-life is 2.8 min.

`O=C(Nc1cccc(F)c1)c1cc(-c2ccc[nH]2)n[nH]1` returned a half-life of 9.45 min. As for `Nc1ccccc1CNc1ccc(S(=O)(=O)Nc2nccs2)cc1`, the half-life is > 30 min. The figure for `CC(C)(C)c1ccc(-c2ccc(=O)n(CC(=O)NCCc3ccccc3)n2)cc1` is 1.6 min. Under `COc1cccc(CNc2ccc(S(=O)(=O)Nc3cccs3)cc2)c1O` stands 1.6 min.

For `CCOc1ccc(CCNC(=O)c2cc3sccc3n2C)cc1OCC`, the half-life was 1.6 min. Turning to `C[C@@H]1COCCN1c1cc(C2(S(C)(=N)=O)CC2)nc(-c2ccnc3[nH]ccc23)n1` (stereo partly specified), the half-life was > 30 min.
